Experimental data reported in patent publication US7202196B2, “Selective herbicide comprising a tetrazolinone derivative” (Bayer Cropscience AG, priority 2001, dated 2007).

Experiments:
Assay type in all cases: in vivo
[1] = system: Aeschynomene rudis; assay: Example A: test in sown rice (Brazil), herbicidal effect; details: fentrazamide 250 EC 400 g a.i./ha; spray at 1-2-leaf stage of the rice, 10 days after sowing; scored 3 weeks after application; outdoor test Brazil 1999
Excerpt: (§1) To prepare a spray preparation, the active compound preparations are mixed with water. The concentration is adjusted so that the application rate corresponds to 200 l of water/ha.
(§2) Rice seeds are sown in test plots (2 m×5 m) in rice paddies. 10 days after sowing (when the rice has reached the 1-2-leaf stage), the spray preparation is applied to the test areas (using a hand-operated sprayer). 1 month after the treatment, the soil is flooded to a water depth of 5 cm; the standing water levels are kept constant.
(§3) 3 weeks after the active compound application, the degree of damage to the rice plants and the herbicidal effect on the emerged weeds of the species Aeschynomene rudis is scored visually in percent in comparison to an untreated control.
(§4) The figures denote: • 0%=no action/damage (like untreated control) • 100%=total destruction

[2] = system: Paddy rice (Oryza sp.); assay: Example A: test in sown rice (Brazil), damage to rice; details: fentrazamide 250 EC 400 g a.i./ha; spray at 1-2-leaf stage of the rice, 10 days after sowing; scored 3 weeks after application; outdoor test Brazil 1999
Excerpt: as §1, §2, §3, §4

[3] = system: Brachiaria plantaginea; assay: Example B: test in sown rice (Brazil), herbicidal effect; details: fentrazamide 250 EC 300 g a.i./ha; spray at BBCH 23 stage of the rice, 29 days after sowing; scored 2 weeks after application; outdoor test Brazil 1999
Excerpt: as §1
as §2, with “29” for “10”, “(during” for “(when”, “BBCH 23 development stage of” for “rice has reached”, “rice; begin of stocking),” for “1-2-leaf stage),”, “A few days” for “1 month”
(§5) 2 weeks after the active compound application, the degree of damage to the rice plants and the herbicidal effect on the emerged weeds Echinochloa crus-galli and Brachiaria plantaginea is scored visually in percent in comparison to an untreated control.
as §4

[4] = system: Echinochloa crus-galli; assay: as above; details: fentrazamide 250 EC 300 g a.i./ha; spray at BBCH 23 stage of the rice, 29 days after sowing; scored 2 weeks after application; outdoor test Brazil 1999
Excerpt: as §1
as §2, with “29” for “10”, “(during” for “(when”, “BBCH 23 development stage of” for “rice has reached”, “rice; begin of stocking),” for “1-2-leaf stage),”, “A few days” for “1 month”
as §5, §4

[5] = system: Paddy rice (Oryza sp.); assay: Example B: test in sown rice (Brazil), damage to rice; details: fentrazamide 250 EC 300 g a.i./ha; spray at BBCH 23 stage of the rice, 29 days after sowing; scored 2 weeks after application; outdoor test Brazil 1999
Excerpt: as §1
as §2, with “29” for “10”, “(during” for “(when”, “BBCH 23 development stage of” for “rice has reached”, “rice; begin of stocking),” for “1-2-leaf stage),”, “A few days” for “1 month”
as §5, §4

[6] = system: Brachiaria plantaginea; assay: Example C: test in sown rice (Brazil), herbicidal effect; details: fentrazamide 250 EC 300 g a.i./ha; spray at BBCH 23 stage of the rice, 29 days after sowing; scored 2 weeks after application; outdoor test Brazil 1999
Excerpt: as §1
as §2, with “29” for “10”, “(during” for “(when”, “BBCH 23 development stage of” for “rice has reached”, “rice; begin of stocking),” for “1-2-leaf stage),”, “A few days” for “1 month”
as §5, §4

[7] = system: Echinochloa crus-galli; assay: as above; details: fentrazamide 250 EC 300 g a.i./ha; spray at BBCH 23 stage of the rice, 29 days after sowing; scored 2 weeks after application; outdoor test Brazil 1999
Excerpt: as §1
as §2, with “29” for “10”, “(during” for “(when”, “BBCH 23 development stage of” for “rice has reached”, “rice; begin of stocking),” for “1-2-leaf stage),”, “A few days” for “1 month”
as §5, §4

[8] = system: Paddy rice (Oryza sp.); assay: Example C: test in sown rice (Brazil), damage to rice; details: fentrazamide 250 EC 300 g a.i./ha; spray at BBCH 23 stage of the rice, 29 days after sowing; scored 2 weeks after application; outdoor test Brazil 1999
Excerpt: as §1
as §2, with “29” for “10”, “(during” for “(when”, “BBCH 23 development stage of” for “rice has reached”, “rice; begin of stocking),” for “1-2-leaf stage),”, “A few days” for “1 month”
as §5, §4

[9] = system: Brachiaria plantaginea; assay: Example D: test in sown rice (Brazil), herbicidal effect; details: fentrazamide 250 EC 300 g a.i./ha; spray at BBCH 23 stage of the rice, 29 days after sowing; scored 2 weeks after application; outdoor test Brazil 1999
Excerpt: as §1
as §2, with “29” for “10”, “(during” for “(when”, “BBCH 23 development stage of” for “rice has reached”, “rice; begin of stocking),” for “1-2-leaf stage),”, “A few days” for “1 month”
as §5, §4

[10] = system: Echinochloa crus-galli; assay: as above; details: fentrazamide 250 EC 300 g a.i./ha; spray at BBCH 23 stage of the rice, 29 days after sowing; scored 2 weeks after application; outdoor test Brazil 1999
Excerpt: as §1
as §2, with “29” for “10”, “(during” for “(when”, “BBCH 23 development stage of” for “rice has reached”, “rice; begin of stocking),” for “1-2-leaf stage),”, “A few days” for “1 month”
as §5, §4

[11] = system: Paddy rice (Oryza sp.); assay: Example D: test in sown rice (Brazil), damage to rice; details: fentrazamide 250 EC 300 g a.i./ha; spray at BBCH 23 stage of the rice, 29 days after sowing; scored 2 weeks after application; outdoor test Brazil 1999
Excerpt: as §1
as §2, with “29” for “10”, “(during” for “(when”, “BBCH 23 development stage of” for “rice has reached”, “rice; begin of stocking),” for “1-2-leaf stage),”, “A few days” for “1 month”
as §5, §4

[12] = system: Brachiaria plantaginea; assay: Example E: test in sown rice (Brazil), herbicidal effect; details: fentrazamide 250 EC 300 g a.i./ha; spray at BBCH 23 stage of the rice, 29 days after sowing; scored 2 weeks after application; outdoor test Brazil 1999
Excerpt: as §1
as §2, with “29” for “10”, “(during” for “(when”, “BBCH 23 development stage of” for “rice has reached”, “rice; begin of stocking),” for “1-2-leaf stage),”, “A few days” for “1 month”
as §5, §4

[13] = system: Echinochloa crus-galli; assay: as above; details: fentrazamide 250 EC 300 g a.i./ha; spray at BBCH 23 stage of the rice, 29 days after sowing; scored 2 weeks after application; outdoor test Brazil 1999
Excerpt: as §1
as §2, with “29” for “10”, “(during” for “(when”, “BBCH 23 development stage of” for “rice has reached”, “rice; begin of stocking),” for “1-2-leaf stage),”, “A few days” for “1 month”
as §5, §4

[14] = system: Paddy rice (Oryza sp.); assay: Example E: test in sown rice (Brazil), damage to rice; details: fentrazamide 250 EC 300 g a.i./ha; spray at BBCH 23 stage of the rice, 29 days after sowing; scored 2 weeks after application; outdoor test Brazil 1999
Excerpt: as §1
as §2, with “29” for “10”, “(during” for “(when”, “BBCH 23 development stage of” for “rice has reached”, “rice; begin of stocking),” for “1-2-leaf stage),”, “A few days” for “1 month”
as §5, §4

[15] = system: Acanthospermum hispidum; assay: Example F: test in sown rice (Brazil), herbicidal effect; details: fentrazamide 250 EC 300 g a.i./ha; spray at BBCH 12 stage of the rice (2-leaf-stage), 18 days after sowing; scored 3 weeks after application; outdoor test Brazil 1999
Excerpt: as §1
(§6) Rice seeds are sown in test plots (2 m×5 m) in rice paddies. 18 days after sowing (during the BBCH 12 development stage of the rice; corresponds to the 2-leaf-stage), the spray preparation is applied to the test areas (using a hand-operated sprayer).
(§7) 3 weeks after the active compound application, the degree of damage to the rice plants and the herbicidal effect on the emerged weeds Acanthospermum hispidum, Commelina benghalensis, Digitaria sanguinalis and Eleusine indica is scored visually in percent in comparison to an untreated control.
as §4

[16] = system: Commelina benghalensis; assay: as above; details: fentrazamide 250 EC 300 g a.i./ha; spray at BBCH 12 stage of the rice (2-leaf-stage), 18 days after sowing; scored 3 weeks after application; outdoor test Brazil 1999
Excerpt: as §1, §6, §7, §4

[17] = system: Digitaria sanguinalis; assay: as above; details: fentrazamide 250 EC 300 g a.i./ha; spray at BBCH 12 stage of the rice (2-leaf-stage), 18 days after sowing; scored 3 weeks after application; outdoor test Brazil 1999
Excerpt: as §1, §6, §7, §4

[18] = system: Eleusine indica; assay: as above; details: fentrazamide 250 EC 300 g a.i./ha; spray at BBCH 12 stage of the rice (2-leaf-stage), 18 days after sowing; scored 3 weeks after application; outdoor test Brazil 1999
Excerpt: as §1, §6, §7, §4

[19] = system: Mountain rice (Oryza sp.); assay: Example F: test in sown rice (Brazil), damage to rice; details: fentrazamide 250 EC 300 g a.i./ha; spray at BBCH 12 stage of the rice (2-leaf-stage), 18 days after sowing; scored 3 weeks after application; outdoor test Brazil 1999
Excerpt: as §1, §6, §7, §4

[20] = system: Echinochloa crus-galli; assay: Example G: test in sown rice (Philippines), herbicidal effect; details: fentrazamide 50 WP 135 g a.i./ha; spray 11 days after sowing (4-leaf-stage); scored 8 weeks after application; outdoor test Philippines 1999
Excerpt: as §1
as §2, with “(2.5 m×2.5” for “(2 m×5”, “11” for “10”, “(4-leaf-stage of” for “(when”, “rice),” for “rice has reached the 1-2-leaf stage),”, “day” for “month”
(§8) 8 weeks after the active compound application, the degree of damage to the rice plants and the herbicidal effect on the emerged weeds of the species Echinochloa crus-galli is scored visually in percent in comparison to an untreated control.
as §4

[21] = system: Paddy rice (Oryza sp.); assay: Example G: test in sown rice (Philippines), damage to rice; details: fentrazamide 50 WP 135 g a.i./ha; spray 11 days after sowing (4-leaf-stage); scored 8 weeks after application; outdoor test Philippines 1999
Excerpt: as §1
as §2, with “(2.5 m×2.5” for “(2 m×5”, “11” for “10”, “(4-leaf-stage of” for “(when”, “rice),” for “rice has reached the 1-2-leaf stage),”, “day” for “month”
as §8, §4

[22] = system: Echinochloa crus-galli; assay: Example H: test in sown rice (Thailand), herbicidal effect; details: fentrazamide 50 WP 135 g a.i./ha; spray 7 days after sowing (2-leaf-stage); scored 8 weeks after application; outdoor test Thailand 1999
Excerpt: as §1
as §2, with “(2.5 m×2.5” for “(2 m×5”, “7” for “10”, “(2-leaf-stage of” for “(when”, “rice),” for “rice has reached the 1-2-leaf stage),”, “2 days” for “1 month”
(§9) 8 weeks after the active compound application, the degree of damage to the rice plants and the herbicidal effect on the emerged weeds Echinochloa crus-galli and Leptochloa chinensis is scored visually in percent in comparison to an untreated control.
as §4

[23] = system: Leptochloa chinensis; assay: as above; details: fentrazamide 50 WP 135 g a.i./ha; spray 7 days after sowing (2-leaf-stage); scored 8 weeks after application; outdoor test Thailand 1999
Excerpt: as §1
as §2, with “(2.5 m×2.5” for “(2 m×5”, “7” for “10”, “(2-leaf-stage of” for “(when”, “rice),” for “rice has reached the 1-2-leaf stage),”, “2 days” for “1 month”
as §9, §4

[24] = system: Paddy rice (Oryza sp.); assay: Example H: test in sown rice (Thailand), damage to rice; details: fentrazamide 50 WP 135 g a.i./ha; spray 7 days after sowing (2-leaf-stage); scored 8 weeks after application; outdoor test Thailand 1999
Excerpt: as §1
as §2, with “(2.5 m×2.5” for “(2 m×5”, “7” for “10”, “(2-leaf-stage of” for “(when”, “rice),” for “rice has reached the 1-2-leaf stage),”, “2 days” for “1 month”
as §9, §4

[25] = system: Echinochloa crus-galli; assay: Example I: test in sown rice (Thailand), herbicidal effect; details: fentrazamide 50 WP 135 g a.i./ha; spray 7 days after sowing (2-leaf-stage); scored 3 weeks after application; outdoor test Thailand 1999
Excerpt: as §1
as §2, with “(2.5 m×2.5” for “(2 m×5”, “7” for “10”, “(2-leaf-stage of” for “(when”, “rice),” for “rice has reached the 1-2-leaf stage),”, “2 days” for “1 month”
(§10) 3 weeks after the active compound application, the degree of damage to the rice plants and the herbicidal effect on the emerged weeds Echinochloa crus-galli is scored visually in percent in comparison to an untreated control.
as §4

[26] = system: Paddy rice (Oryza sp.); assay: Example I: test in sown rice (Thailand), damage to rice; details: fentrazamide 50 WP 135 g a.i./ha; spray 7 days after sowing (2-leaf-stage); scored 3 weeks after application; outdoor test Thailand 1999
Excerpt: as §1
as §2, with “(2.5 m×2.5” for “(2 m×5”, “7” for “10”, “(2-leaf-stage of” for “(when”, “rice),” for “rice has reached the 1-2-leaf stage),”, “2 days” for “1 month”
as §10, §4

SMILES: CCN(C(=O)n1nnn(-c2ccccc2Cl)c1=O)C1CCCCC1 [(A), 4-(2-chlorophenyl)-N-cyclohexyl-N-ethyl-4,5-dihydro-5-oxo-1H-tetrazole-1-carboxamide]
- Damage or action in % Aeschynomene rudis found [1]: 30%
- Damage or action in % Paddy rice (Oryza sp.) found [2]: 0%
- Damage or action in % Brachiaria plantaginea found [3]: 10%
- Damage or action in % Echinochloa crus-galli found [4]: 35%
- Damage or action in % Paddy rice (Oryza sp.) found [5]: 0%
- Damage or action in % Brachiaria plantaginea found [6]: 10%
- Damage or action in % Echinochloa crus-galli found [7]: 35%
- Damage or action in % Paddy rice (Oryza sp.) found [8]: 0%
- Damage or action in % Brachiaria plantaginea found [9]: 10%
- Damage or action in % Echinochloa crus-galli found [10]: 35%
- Damage or action in % Paddy rice (Oryza sp.) found [11]: 0%
- Damage or action in % Brachiaria plantaginea found [12]: 10%
- Damage or action in % Echinochloa crus-galli found [13]: 35%
- Damage or action in % Paddy rice (Oryza sp.) found [14]: 0%
- Damage or action in % Acantho-spermum hispidum found [15]: 50%
- Damage or action in % Commelina Bengha-lensis found [16]: 50%
- Damage or action in % Digitaria Sanguina-lis found [17]: 50%
- Damage or action in % Eleusine indica found [18]: 50%
- Damage or action in % Mountain rice (Oryza sp.) found [19]: 0%
- Damage or action in % Echinochloa crus-galli found [20]: 78%
- Damage or action in % Paddy rice (Oryza sp.) found [21]: 0%
- Damage or action in % Echinochloa crus-galli found [22]: 47%
- Damage or action in % Leptochloa chinensis found [23]: 38%
- Damage or action in % Paddy rice (Oryza sp.) found [24]: 3%
- Damage or action in % Echinochloa crus-galli found [25]: 58%
- Damage or action in % Paddy rice (Oryza sp.) found [26]: 2%
